Measurements as given in US4339442A, “Gynosaponins, their use and a process for preparing the same” (priority 1980, dated 1982).

Key:
Assay type in all cases: cell-based, male wister rats
fat cells [1] = experiment: Decomposition by adrenalin of the fat in the fat cells; conditions: adrenalin 1 μg/ml + saponin 20 μg/ml, 37° C., two hours; for inhibition at 20 µg/mL: Rattus norvegicus, 2 h, read-out: Rate of inhibition
Procedure: A small section was prepared from 4 g of the fat tissue, and placed in 10 ml. of Krebs-Ringer bicarbonate buffer containing 0.4 g of albumin, 10 mg of collagenase and 5 mg of glucose, and having a pH value of 7.4. […] Added into the fat cell were 10 ml. of the aforesaid buffer (pH 7.4), and the solution was carefully stirred to wash the fat cell, followed by centrifugal separation at 300 rpm for 30 seconds. This procedure was repeated twice, whereby the fat cells were washed perfectly, and these fat cells were used for the tests.
The fat cells obtained by treating with collagenase were suspended in Krebs-Ringer phosphate buffer (KRP) having a pH value of 7.4. Placed into a test tube were 0.3 ml. of the solution thus obtained, and containing 100 mg of fat cells, 0.1 ml. of an adrenalin solution containing 1 μg of adrenalin, 0.1 ml. of a saponin solution containing 20 μg of saponin, and 0.5 ml. of a 5% albumin solution in KRP, and having a pH value adjusted to 7.4. […] More specifically, 3 ml. of Dole's extract were placed in the reaction system, and after they were shaked for five minutes, 3 ml. of heptane were dispensed, and 1 ml. of a thymol blue solution was added thereinto. The resulting solution was titrated with a 0.008 N aqueous solution of sodium hydroxide, while it was being stirred with nitrogen, and the amount of the resulting free fatty acid was determined in accordance with a calibration curve.
The rate of inhibition was obtained in accordance with the equation shown at (1) above.

fat cells [2] = experiment: Decomposition of the fat in the fat cell by ACTH; conditions: 37° C., two hours; for inhibition at 20 µg/mL: Rattus norvegicus, 2 h, read-out: Rate of inhibition
Procedure: (§1) Fat tissues were separated from the epididymides of male wister rats weighing 150 to 180 g each, and fat cells were obtained therefrom in accordance with the Rodbell's method [M. Rodbell, J. Biol. Chem., 239, 375 (1964)]. A small section was prepared from 4 g of the fat tissue, and placed in 10 ml. of Krebs-Ringer bicarbonate buffer containing 0.4 g of albumin, 10 mg of collagenase and 5 mg of glucose, and having a pH value of 7.4. It was heated at 37° C. for 50 minutes, and subjected to centrifugal separation at 300 rpm, whereby a floating fat cell layer was separated. Added into the fat cell were 10 ml. of the aforesaid buffer (pH 7.4), and the solution was carefully stirred to wash the fat cell, followed by centrifugal separation at 300 rpm for 30 seconds. This procedure was repeated twice, whereby the fat cells were washed perfectly, and these fat cells were used for the tests.
The fat cells obtained by treating with collagenase were suspended in Krebs-Ringer bicarbonate buffer (KRB) having a pH value of 7.4. Placed into a test tube were 0.3 ml. of the solution thus obtained (containing 100 mg of fat cells), 0.1 ml. of ACTH solution containing 1 μg of ACTH, 0.1 ml. of each saponin solution containing 500 μg of saponin, and 0.3 ml. of a 5% alubumin solution in KRB, and having a pH value adjusted to 7.4. They were heated at 37° C. for two hours, and the amount of the resulting free fatty acid was determined in accordance with the Dole's method [V. P. Dole, J. Biol. Chem., 35, 150 (1958)].
Namely, 3 ml. of Dole's extract were separated into the reaction system, and 1 ml. of a thymol blue solution was added thereinto. Nitrogen was blown into the resulting solution, and the solution was titrated with a 0.008 N aqueous solution of sodium hydroxide, while it was being stirred. The amount of the resulting free fatty acid was determined in accordance with a calibration curve.
The rate of inhibition against fat decomposition was obtained in accordance with the following equation: [formula] wherein A stands for the amount of the free fatty acid formed by addition of ACTH along in the amount of 1 μg/ml.; and B stands for the amount of the free fatty acid formed by addition of ACTH and saponin in the amount of 1 μg/ml. and 20 μg/ml., respectively.

fat cells [3] = experiment: Synthesis of fat from glucose in fat cells; conditions: 20 μg/ml; for Power for synthesis of neutral fat from glucose: 37° C., half an hour; for Rate of promotion / activation at 20 µg/mL: none = 100; for activation at 20 µg/mL: Rattus norvegicus, 0.5 h, read-out: Rate of promotion
Procedure: as §1
^14 C-glucose having its carbon atoms marked with radioactivity was reacted upon fat cells, and a Geiger count was read to determine the amount of the glucose participating in the fat synthesis and incorporated into the fat cells as a neutral fat, whereby gynosaponins were tested for their effects on the power of the glucose for fat synthesis.
More specifically, the fat cells obtained by treating with collagenase were suspended in KRB, and 0.35 ml. of the resulting solution containing 100 mg of fat cells was placed into a test tube with 0.1 ml. of each saponin solution containing 20 μg of saponin, 0.5 ml. of a 5% albumin solution in KRB, containing 10 mM glucose and having a pH value of 7.4, and 0.05 ml. of a ^14 C-glucose solution which was a 0.5 μCi KRP solution having a pH value of 7.4 and containing 10 mM glucose. They were heated at 37° C. for half an hour, and after 5 ml. of Dole's extract were added and the whole was shaked for five minutes, 3 ml. of heptane and 2 ml. of water were added, and the whole was shaked for five minutes. 3 ml. of a heptane layer were separated, and after an alkaline ethanol solution (0.5 N sodium hydroxide solution, 50 % ethanol solution) was added in the amount of 3 ml., the whole was shaked for five minutes. Then, 1 ml. of an ethanol layer was separated, and 10 ml. of a toluene scintillation solution were added thereinto, followed by determination according to the method of Skipski et al. [Biochem. Biophys. Acta, 106, 386 (1965)].

[4] = ACTH 1 μg/ml + saponin 20 μg/ml

Compound	Free fatty acid formed by decomposition of fat (fat cells [1]) [μ Eq/g]	Rate of inhibition (fat cells [1]) [%]	Free fatty acid formed by decomposition of fat (fat cells [2]; [4]) [μ Eq/g]	Rate of inhibition (fat cells [2]; [4]) [%]	Power for synthesis of neutral fat from glucose (fat cells [3])	Rate of promotion (fat cells [3]) [%]	Free fatty acid formed by decomposition of fat (fat cells [2]; ACTH alone, 1 μg/ml) [μ Eq/g]	inhibition at 20 µg/mL (fat cells [1]) [%]	inhibition at 20 µg/mL (fat cells [2]; [4]) [%]	activation at 20 µg/mL (fat cells [3]) [%]
20S-Protopanaxadiol-3-O-{[β-D-glucopyranosyl (1→2)-α-L-rhamnopyranosyl (1→6)]-β-D-glucopyranoside}-20-O-[β-D-glucopyranosyl (1→6)-β-D-glucopyranoside] [gynosaponin A]	13.4	5	6.1	27	8,013 cpm/g	37				
ACTH: ACTH, used at 1 μg/ml to decompose fat in fat cells (SYSMEHFRWGKPVGKKRRPVKVYPNGAEDESAEAFPLEF; Corticotropin; UniProt P01189 138-176, looked up) [reference compound]							8.4			
20S-Protopanaxadiol-3-O-{[β-D-glucopyranosyl (1→2)-α-L-rhamnopyranosyl (1→6)]-β-D-glucopyranoside}-20-O-β-D-glucopyranoside [gynosaponin F]	13.4	5	6.3	25	11,620 cpm/g	54				
CC(C)=CCC[C@](C)(O[C@@H]1O[C@H](CO[C@@H]2OC[C@@H](O)[C@H](O)[C@H]2O)[C@@H](O)[C@H](O)[C@H]1O)[C@H]1CC[C@]2(C)[C@@H]1[C@H](O)C[C@@H]1[C@@]3(C)CC[C@H](O[C@@H]4O[C@H](CO)[C@@H](O)[C@H](O)[C@H]4O)C(C)(C)[C@@H]3CC[C@]12C [gynosaponin I, 20S-Protopanaxadiol-3-O-β-D-glucopyranoside-20-O-[β-D-xylopyranosyl (1→6)-β-D-glucopyranoside]]	12.7		6.6		10,564 cpm/g			10	21	49
CC(C)=CCC[C@](C)(O[C@@H]1O[C@H](CO[C@@H]2O[C@H](CO)[C@@H](O)[C@H](O)[C@H]2O)[C@@H](O)[C@H](O)[C@H]1O)[C@H]1CC[C@]2(C)[C@@H]1[C@H](O)C[C@@H]1[C@@]3(C)CC[C@H](O[C@@H]4O[C@H](CO)[C@@H](O)[C@H](O)[C@H]4O)C(C)(C)[C@@H]3CC[C@]12C [gynosaponin S, 20S-Protopanaxadiol-3-O-β-D-glucopyranoside-20-O-[β-D-glucopyranosyl (1→6)-β-D-glucopyranoside]]	13.5		5.4		10,100 cpm/g			4	36	47
CC(C)=CCC[C@](C)(O[C@@H]1O[C@H](CO[C@@H]2O[C@@H](C)[C@H](O)[C@@H](O)[C@H]2O)[C@@H](O)[C@H](O)[C@H]1O)[C@H]1CC[C@]2(C)[C@@H]1[C@H](O)C[C@@H]1[C@@]3(C)CC[C@H](O)C(C)(C)[C@@H]3CC[C@]12C [gynosaponin N, 20S-Protopanaxadiol-20-O-[α-L-rhamnopyranosyl (1→6)-β-D-glucopyranoside]]	13.3		5.2		9,870 cpm/g			6	38	46
CC(C)=CCC[C@](C)(O[C@@H]1O[C@H](CO[C@@H]2OC[C@@H](O)[C@H](O)[C@H]2O)[C@@H](O)[C@H](O)[C@H]1O)[C@H]1CC[C@]2(C)[C@@H]1[C@H](O)C[C@@H]1[C@@]3(C)CC[C@H](O)C(C)(C)[C@@H]3CC[C@]12C [gynosaponin M, 20S-Protopanaxadiol-20-O-[β-D-xylopyranosyl (1→6)-β-D-glucopyranoside]]	13.5		6.4		12,650 cpm/g			4	24	59
CC(C)=CCC[C@](C)(O[C@@H]1O[C@H](CO[C@@H]2O[C@@H](C)[C@H](O)[C@@H](O)[C@H]2O)[C@@H](O)[C@H](O)[C@H]1O)[C@H]1CC[C@]2(C)[C@@H]1[C@H](O)C[C@@H]1[C@@]3(C)CC[C@H](O[C@@H]4O[C@H](CO)[C@@H](O)[C@H](O)[C@H]4O[C@@H]4OC[C@@H](O)[C@H](O)[C@H]4O)C(C)(C)[C@@H]3CC[C@]12C [gynosaponin R, 20S-Protopanaxadiol-3-O-[β-D-xylopyranosyl (1→2)-β-D-glucopyranoside]-20-O-[α-L-rhamnopyranosyl (1→6)-β-D-glucopyranoside]]	14.0		6.2		12,600 cpm/g			1	26	59
20S,26-Hydroxyprotopanaxadiol-3-O-{[β-D-glucopyranosyl (1→2)-α-L-rhamnopyranosyl (1→6)]-β-D-glucopyranoside}-20-O-[β-D-glucopyranosyl (1→6)-β-D-glucopyranoside] [gynosaponin T]	13.1	7	6.3	25	11,150 cpm/g	52				
CC(C)=CCC[C@](C)(O[C@@H]1O[C@H](CO[C@@H]2O[C@H](CO)[C@@H](O)[C@H](O)[C@H]2O)[C@@H](O)[C@H](O)[C@H]1O)[C@H]1CC[C@]2(C)[C@@H]1[C@H](O)C[C@@H]1[C@@]3(C)CC[C@H](O[C@@H]4O[C@H](CO[C@@H]5O[C@@H](C)[C@H](O)[C@@H](O)[C@H]5O)[C@@H](O)[C@H](O)[C@H]4O)C(C)(C)[C@@H]3CC[C@]12C [progynosapogenin A2, 20S-Protopanaxadiol-3-O-[α-L-rhamnopyranosyl (1→6)-β-D-glucopyranoside]-20-O-[β-D-glucopyranosyl (1→6)-β-D-glucopyranoside]]	13.0		6.2		12,650 cpm/g			8	26	59
